Results taken from PubChem BioAssay AID1996.
Converted amounts (≈) assume the structure as drawn.

Details: buffer; pH 7.4; 200.0 µM

SMILES | solubility kinetic [mg/mL]
Cn1c(NNC(=O)c2ccccc2F)cc(=O)n(C)c1=O | > 0.0438
COc1ccc(/C=C/C(=O)N2CCCC2)cc1OC | > 0.0392
COC(=O)C1=C(C)N(CCc2c[nH]c3ccccc23)C(=O)C1 | 0.0428 (≈ 143 µM)
Cc1ccc(C(=O)NCCNC(=O)c2ccc(C)o2)o1 | 0.0361 (≈ 131 µM)
CCCCS(=O)(=O)N1CCCC(C(=O)NCCc2ccccc2)C1 (configuration not stated) | 0.0147 (≈ 41.7 µM)
Cc1cccc(OCc2ccc(C(=O)Nc3cc(C)on3)o2)c1 | < 0.0003
Cc1oc(C(C)(C)C)cc1C(N)=O | > 0.0272
Fc1ccc(-n2c(=S)[nH]c3cccnc32)cc1 | > 0.0368
CC(=O)Nc1sc(C)c(C)c1C(=O)OCC(=O)Nc1cccc(C)c1 | 0.0011 (≈ 3.05 µM)
O=C(COc1ccc(F)cc1)Nc1ccc2c(c1)OCCO2 | 0.0079 (≈ 26 µM)
CSc1ncccc1C(=O)Nc1cccc(C)n1 | > 0.0389
O=C1CSC(c2ccccc2[N+](=O)[O-])N1c1ccc(O)cc1 (configuration not stated) | > 0.0474
Cc1ccc(NC(=O)c2noc3c2CCC3)cc1C | 0.0047 (≈ 18.3 µM)
O=C(O)Cc1c(C(=O)O)[nH]c2ccc(C(=O)O)cc12 | > 0.0395
CC(C)(C)c1ccc(C(=O)NCCCNC(=O)c2cccnc2)cc1 | 0.0492 (≈ 145 µM)
O=C(O)C(Cc1ccc(Cl)cc1)Sc1nc2ccccc2[nH]1 (configuration not stated) | 0.0423 (≈ 127 µM)
COc1ccc(CNC(=O)CN(C)S(=O)(=O)c2ccccc2)cc1 | > 0.0523
O=C(CN1C(=O)S/C(=C\C=C\c2ccccc2)C1=O)N1CCOCC1 | 0.0078 (≈ 21.8 µM)
CC(=O)N[C@@H](Cc1c[nH]c2ccccc12)C(=O)OCc1cc(C(F)(F)F)cc(C(F)(F)F)c1 | 0.0034 (≈ 7.2 µM)
CC(Sc1nc2c(c(=O)[nH]1)CCCC2)C(=O)Nc1ccccc1C#N (configuration not stated) | 0.0461 (≈ 130 µM)
C=CCn1c(O)c(C(CC)=Nc2ccc(N(C)C)cc2)c(=O)[nH]c1=O | 0.0015 (≈ 4.38 µM)
Cc1[nH]c2ccccc2c1CC#N | 0.0213 (≈ 125 µM)
CSC1=NCCN1C(=O)Cc1ccc(-c2ccccc2)cc1 | 0.0041 (≈ 13.2 µM)
CN1CCN(C(=O)c2ccc(F)c(F)c2)CC1 | > 0.036

SMILES | solubility kinetic [mg/mL]
CC(C)N(Cc1ccccc1)C(=O)CCc1ccccc1 | 0.0368 (≈ 131 µM)
CC1CC(=O)Nc2ccccc2N1S(=O)(=O)c1ccc(C#N)cc1 (configuration not stated) | 0.0027 (≈ 7.91 µM)
CCN(c1ccccc1)S(=O)(=O)c1ccc2ccccc2c1 | 0.0049 (≈ 15.7 µM)
Cc1ccc(SC(C)C(=O)O/N=C(\N)c2ccncc2)cc1 (configuration not stated) | > 0.0473
CCC(C)N(C(=O)CSc1nncn1C)C1CCS(=O)(=O)C1 (configuration not stated) | > 0.052
COc1ccc(NC(=O)C(=S)NC2CCCCC2)cc1 | < 0.0003
COc1ccc(/C=N/NC(=O)c2ccncc2)c(C(=O)O)c1OC | > 0.0494
COc1ccc(NC(=O)CSCC(=O)N=c2sccn2C)cc1 | 0.0499 (≈ 142 µM)
Cc1cccc(C(C)C)c1NC(=O)c1c(-c2ccccc2)noc1C | 0.0006 (≈ 1.79 µM)
O=S(=O)(Nc1ncccn1)c1ccccc1 | > 0.0353
COC(=O)CN(C#N)c1nc(NCc2ccccc2)nc(OC)n1 | > 0.0492
Cc1occc1C(=O)Nc1cnn(CCCC(=O)O)c1 | > 0.0416
O=C1SC(Cc2ccccc2)C(=O)N1c1ccccc1 (configuration not stated) | 0.0061 (≈ 21.5 µM)
CCOC(=O)c1ccc(NC(=S)NCc2cccnc2)cc1 | > 0.0473
CCc1nnc(NC(=O)CN2C(=O)NC3(CC(C)CC(C)(C)C3)C2=O)s1 (configuration not stated) | > 0.0569
Cc1ccc(O)c(CNc2nc3ccccc3[nH]2)c1 | > 0.038
OC(c1ccc(F)cc1)C(CN1CCOCC1)c1ccccc1 (configuration not stated) | > 0.0473
CCOC(=O)c1c(-c2ccc(C)s2)csc1N | 0.0073 (≈ 27.3 µM)
Cc1cc(C)c(C#N)c(Nc2cccc(Br)c2)n1 | < 0.0002
COc1ccc(C2(NC(C)=O)CCN(Cc3cccnc3)CC2)cc1 | 0.0409 (≈ 120 µM)
O=C1c2ccccc2C(=O)N1Cc1cc(Cl)c(O)c([N+](=O)[O-])c1 | > 0.0499
COc1ccccc1CNC(=S)NC1CCCCC1 | > 0.0418
O=C(COC(=O)c1ccc(Cl)c([N+](=O)[O-])c1)NC1CCCC1 | 0.0076 (≈ 23.3 µM)
